Here are results for 27 molecules from patent US9902725B2, “Heterocyclic derivatives as RORgamma modulators” (GENFIT, priority 2014, dated 2018).

The experiment concerns the target T1, RORγt ligand-binding domain (RORγt-LBD) (Homo sapiens, UniProt P51449).
T1 construct: 20 nM recombinantly expressed RORγ-LBD fused to GST
T1 sequence (P51449 269-508 limits assumed): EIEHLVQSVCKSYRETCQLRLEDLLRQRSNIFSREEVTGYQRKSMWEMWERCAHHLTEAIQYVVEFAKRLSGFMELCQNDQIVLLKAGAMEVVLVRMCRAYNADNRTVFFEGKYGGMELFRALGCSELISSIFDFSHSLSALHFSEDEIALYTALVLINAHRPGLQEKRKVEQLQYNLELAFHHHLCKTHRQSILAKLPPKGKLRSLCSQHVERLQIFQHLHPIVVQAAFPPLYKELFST
The experiment in a line: Time-resolved FRET (TR-FRET) RORγt coactivator assay. Conditions: GST-RORγ-LBD, biotinylated RIP140 peptide, coactivator displacement. In kind it is biochemical. From the text: Time-resolved FRET (TR-FRET) RORγt coactivator assay was used to identify RORγ modulator compounds with ligand-dependent coactivator displacement. The assay uses a d2-labeled anti-GST antibody, synthetic N-terminally biotinylated peptide which is derived from nuclear receptor coactivator protein RIP140, and a RORγt ligand-binding domain (RORγt-LBD) that is tagged with glutathione-S-transferase (GST). The influence of compounds on the RORγ-peptide interaction relies on the binding dependent energy transfer from a donor to an acceptor fluorophore attached to the binding partner of interest. […] For reduction of background from compound fluorescence, TR-FRET method makes use of generic fluorophore labels and time resolved detection.
The assays were done in a final volume of 20 μl in a 384 well plate in a CHAPS buffer (2 mM CHAPS; 1 mM DTT, 2 mM EDTA; 0.1% BSA), containing 20 nM recombinantly expressed RORγ-LBD fused to GST, 30 nM N-terminally biotinylated peptide, 1 nM streptavidin-terbium conjugate and 20 nM d2 labeled-anti-GST. Test compounds were diluted using 10 mM stock solution. The range of the final compound concentrations used in this test was from 0.3 nM to 30 μM (logarithmic scale). DMSO content of the samples was kept at 1%. The assay was equilibrated for 2 hours in the dark at room temperature in 384 well plates (Falcon). The signal was detected by an Ultra384 reader (TECAN). The results were visualized by plotting the ratio between the emitted light at 665 nm and 620 nm. A basal level of RORγ-peptide formation is observed in the absence of added compound. Compounds that promote coactivator displacement induce a concentration-dependent decrease in time-resolved fluorescent signal. Data were collected and analyzed using GraphPad Prism software (GraphPad Software V5.02, San Diego Calif. USA). IC50 in μM and Emax in % were reported for each compound.
A general note: In TR-FRET formats the signal depends on donor and acceptor labels being close together.
As usually defined, the IC50 is the concentration that inhibits the measured activity by half. Low values mean greater potency in that assay, high ones weaker potency in that assay. With `CC(C)(C)OC(=O)CCc1c[nH]c2ccc(CC(=O)NC(c3ccccc3)c3ccccc3N3CCCCC3)cc12` (stereo not drawn) [Cpd. 2, tert-butyl 3-{5-[({phenyl[2-(piperidin-1-yl)phenyl]methyl}carbamoyl)methyl]-1H-indol-3-yl}propanoate], the IC50 fell in the range of 1000 to 10000 nM.
The value for `Cc1ccc(C(NC(=O)Cc2ccc3[nH]cc(CCC(=O)O)c3c2)c2ccccc2)c(C)c1` (stereo not drawn) [Cpd. 11, 3-[5-({[(2,4-dimethylphenyl)(phenyl)methyl]carbamoyl}methyl)-1H-indol-3-yl]propanoic acid] was less than 1000 nM.
The molecule `Cc1ccc(C)c(C(NC(=O)Cc2ccc3[nH]cc(CCC(=O)O)c3c2)c2ccccc2)c1` (stereo not drawn) [Cpd. 13, 3-[5-({[(2,5-dimethylphenyl)(phenyl)methyl]carbamoyl}methyl)-1H-indol-3-yl]propanoic acid] yielded an IC50 of less than 1000 nM.
The same measure for `Cc1cc(Cl)ccc1C(NC(=O)Cc1ccc2[nH]cc(CCC(=O)OC(C)(C)C)c2c1)c1ccccc1` (stereo not drawn) [Cpd. 34, tert-butyl 3-[5-({[(4-chloro-2-methylphenyl)(phenyl)methyl]carbamoyl}methyl)-1H-indol-3-yl]propanoate]: 1000 to 10000 nM; for `COC(=O)Cc1c[nH]c2ccc(CC(=O)NC(c3ccccc3)c3ccccc3N3CCCCC3)cc12` (stereo not drawn) [Cpd. 40, methyl 2-{5-[({phenyl[2-(piperidin-1-yl)phenyl]methyl}carbamoyl)methyl]-1H-indol-3-yl}acetate]: less than 1000 nM.
The same measure for `Cc1ccc(Cl)c(C(NC(=O)Cc2ccc3[nH]cc(CCC(=O)OC(C)(C)C)c3c2)c2ccccc2)c1` (stereo not drawn) [Cpd. 41, tert-butyl 3-[5-({[(2-chloro-5-methylphenyl)(phenyl)methyl]carbamoyl}methyl)-1H-indol-3-yl]propanoate]: 1000 to 10000 nM; for `Cc1cc(F)ccc1C(NC(=O)Cc1ccc2[nH]cc(CCC(=O)OC(C)(C)C)c2c1)c1ccccc1` (stereo not drawn) [Cpd. 45, tert-butyl 3-[5-({[(4-fluoro-2-methylphenyl)(phenyl)methyl]carbamoyl}methyl)-1H-indol-3-yl]propanoate]: 10000 to 30000 nM; for `CC(C)(C)OC(=O)CCc1c[nH]c2ccc(CC(=O)NC(c3ccccc3)c3ccccc3N)cc12` (stereo not drawn) [Cpd. 51, tert-butyl 3-[5-({[(2-aminophenyl)(phenyl)methyl]carbamoyl}methyl)-1H-indol-3-yl]propanoate]: 1000 to 10000 nM.
The value for `CN(C)c1ccccc1C(NC(=O)Cc1ccc2[nH]cc(CCC(=O)OC(C)(C)C)c2c1)c1ccccc1` (stereo not drawn) [Cpd. 53, tert-butyl 3-{5-[({[2-(dimethylamino)phenyl](phenyl)methyl}carbamoyl)methyl]-1H-indol-3-yl}propanoate] was 1000 to 10000 nM; that for `CC(C)CC(NC(=O)Cc1ccc2[nH]cc(CCC(=O)OC(C)(C)C)c2c1)c1ccccc1N1CCOCC1` (stereo not drawn) [Cpd. 57, tert-butyl 3-{5-[({3-methyl-1-[2-(morpholin-4-yl)phenyl]butyl}carbamoyl)methyl]-1H-indol-3-yl}propanoate] was 1000 to 10000 nM.
In the case of `N#Cc1ccc(C(NC(=O)Cc2ccc3[nH]cc(CCC(=O)O)c3c2)c2ccccc2)c(N2CCCC2)c1` (stereo not drawn) [Cpd. 60, 3-{5-[({[4-cyano-2-(pyrrolidin-1-yl)phenyl](phenyl)methyl}carbamoyl)methyl]-1H-indol-3-yl}propanoic acid], the IC50 is less than 1000 nM.
The value for `CC(C)(C)OC(=O)CCc1c[nH]c2ccc(CC(=O)NC(c3ccccc3)c3cc(Cl)ccc3N3CCCCC3)cc12` (stereo not drawn) [Cpd. 61, tert-butyl 3-{5-[({[5-chloro-2-(piperidin-1-yl)phenyl](phenyl)methyl}carbamoyl)methyl]-1H-indol-3-yl}propanoate] was 1000 to 10000 nM; that for `COC(=O)Cc1c[nH]c2ccc(CC(=O)NC(c3ccccc3)c3ccc(Br)cc3N3CCCC3)cc12` (stereo not drawn) [Cpd. 66, methyl 2-{5-[({[4-bromo-2-(pyrrolidin-1-yl)phenyl](phenyl)methyl}carbamoyl)methyl]-1H-indol-3-yl}acetate] was less than 1000 nM; that for `COC(=O)Cc1c[nH]c2ccc(NC(=O)NC(c3ccccc3)c3ccccc3N3CCCCC3)cc12` (stereo not drawn) [Cpd. 68, methyl 2-{5-[({phenyl[2-(piperidin-1-yl)phenyl]methyl}carbamoyl)amino]-1H-indol-3-yl}acetate] was 1000 to 10000 nM.
The same measure for `COC(=O)Cc1c[nH]c2ccc(CC(=O)NC(c3ccccc3)c3ccccc3N(C)C)cc12` (stereo not drawn) [Cpd. 70, methyl 2-{5-[({[2-(dimethylamino)phenyl](phenyl)methyl}carbamoyl)methyl]-1H-indol-3-yl}acetate]: less than 1000 nM; for `COC(=O)Cc1c[nH]c2ccc(CC(=O)NC(c3ccccc3)c3ccccc3N3CCCC3)cc12` (stereo not drawn) [Cpd. 72, methyl 2-{5-[({phenyl[2-(pyrrolidin-1-yl)phenyl]methyl}carbamoyl)methyl]-1H-indol-3-yl}acetate]: less than 1000 nM; for `COC(=O)Cc1c[nH]c2ccc(CC(=O)NC(c3ccccc3)c3ccccc3N3CCCCCC3)cc12` (stereo not drawn) [Cpd. 74, methyl 2-{5-[({[2-(azepan-1-yl)phenyl](phenyl)methyl}carbamoyl)methyl]-1H-indol-3-yl}acetate]: less than 1000 nM.
Turning to `Cc1ccc(C(NC(=O)Cc2ccc3[nH]cc(CCC(=O)OC(C)(C)C)c3c2)c2ccccc2)c(N2CCOCC2)c1` (stereo not drawn) [Cpd. 80, tert-butyl 3-{5-[({[4-methyl-2-(morpholin-4-yl)phenyl](phenyl)methyl}carbamoyl)methyl]-1H-indol-3-yl}propanoate], the IC50 is less than 1000 nM.
`CC(C)(C)OC(=O)CCc1c[nH]c2ccc(CC(=O)NC(c3ccccc3)c3ccc(F)cc3N3CCCC3)cc12` (stereo not drawn) [Cpd. 92, tert-butyl 3-{5-[({[4-fluoro-2-(pyrrolidin-1-yl)phenyl](phenyl)methyl}carbamoyl)methyl]-1H-indol-3-yl}propanoate] displayed an IC50 of 1000 to 10000 nM.
The value for `CC(C)(C)OC(=O)CCc1c[nH]c2ncc(NC(=O)NC(c3ccccc3)c3ccccc3N3CCCCC3)cc12` (stereo not drawn) [Cpd. 94, tert-butyl 3-{5-[({phenyl[2-(piperidin-1-yl)phenyl]methyl}carbamoyl)amino]-1H-pyrrolo[2,3-b]pyridin-3-yl}propanoate] was 1000 to 10000 nM; that for `Cc1ccc(C(NC(=O)Cc2ccc3[nH]cc(CC(=O)O)c3c2)c2ccccc2)c(N2CCOCC2)c1` (stereo not drawn) [Cpd. 97, 2-{5-[({[4-methyl-2-(morpholin-4-yl)phenyl](phenyl)methyl}carbamoyl)methyl]-1H-indol-3-yl}acetic acid] was 1000 to 10000 nM.
On to `Cc1ccc(C(NC(=O)Cc2ccc3[nH]cc(CCC(=O)OC(C)(C)C)c3c2)c2ccc(C)s2)c(C)c1` (stereo not drawn) [Cpd. 100, tert-butyl 3-[5-({[(2,4-dimethylphenyl)(5-methylthiophen-2-yl)methyl]carbamoyl}methyl)-1H-indol-3-yl]propanoate], for which the IC50 was 1000 to 10000 nM.
On to `Cc1ccc(C(NC(=O)Cc2ccc3[nH]cc(CCC(=O)OC(C)(C)C)c3c2)c2ccccc2)c(N2CCN(C)CC2)c1` (stereo not drawn) [Cpd. 102, tert-butyl 3-{5-[({[4-methyl-2-(4-methylpiperazin-1-yl)phenyl](phenyl)methyl}carbamoyl)methyl]-1H-indol-3-yl}propanoate], for which the IC50 lay in the range of 1000 to 10000 nM.
The same measure for `CC(C)CC(NC(=O)Cc1ccc2[nH]cc(CCC(=O)OC(C)(C)C)c2c1)c1cccc2ccccc12` (stereo not drawn) [Cpd. 104, tert-butyl 3-[5-({[3-methyl-1-(naphthalen-1-yl)butyl]carbamoyl}methyl)-1H-indol-3-yl]propanoate]: 1000 to 10000 nM; for `CC(C)(C)OC(=O)CCc1c[nH]c2ccc(CC(=O)NC(c3ccccc3)c3ccccc3-n3cccc3)cc12` (stereo not drawn) [Cpd. 106, tert-butyl 3-{5-[({phenyl[2-(1H-pyrrol-1-yl)phenyl]methyl}carbamoyl)methyl]-1H-indol-3-yl}propanoate]: 1000 to 10000 nM.
On to `Cc1ccc(N2CCCCC2)c(C(NC(=O)Cc2ccc3[nH]cc(CCC(=O)OC(C)(C)C)c3c2)c2ccccc2)c1` (stereo not drawn) [Cpd. 113, tert-butyl 3-{5-[({[5-methyl-2-(piperidin-1-yl)phenyl](phenyl)methyl}carbamoyl)methyl]-1H-indol-3-yl}propanoate], for which the IC50 lay in the range of 1000 to 10000 nM.
The same measure for `CC(C)(C)OC(=O)CCc1c[nH]c2ccc(CC(=O)NC(c3ccccc3)c3cc(Br)ccc3N3CCCC3)cc12` (stereo not drawn) [Cpd. 116, tert-butyl 3-{5-[({[5-bromo-2-(pyrrolidin-1-yl)phenyl](phenyl)methyl}carbamoyl)methyl]-1H-indol-3-yl}propanoate]: 1000 to 10000 nM.
